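Assay format: 96-well plates, 48-hour exposure. The concentration for 50% growth inhibition is given as GI50. At the TGI there is no net growth.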
Legend:
Assay in all cases: NCI anticancer screen, dose series, 48 h
[1] = system: UACC-62 melanoma
[2] = system: A498 renal
[3] = system: SK-MEL-28 melanoma
[4] = system: SK-OV-3 ovarian
[5] = system: SF-539 CNS
[6] = system: TK-10 renal
[7] = system: CAKI-1 renal
[8] = system: SN12C renal
[9] = system: NCI-H226 lung
[10] = system: ACHN renal
[11] = system: BT-549 breast
[12] = system: U251 CNS
[13] = system: SNB-75 CNS
[14] = system: MDA-MB-231 breast
[15] = system: OVCAR-5 ovarian
[16] = system: PC-3 prostate
[17] = system: SF-295 CNS
[18] = system: RXF 393 renal
[19] = system: HS 578T breast
[20] = system: DU-145 prostate
[21] = system: HCT-116 colon
[22] = system: NCI/ADR-RES ovarian
[23] = system: K-562 leukemia
[24] = system: CCRF-CEM leukemia
[25] = system: MCF7 breast
[26] = system: MALME-3M melanoma
[27] = system: UO-31 renal
[28] = system: HOP-92 NSCLC
[29] = system: M14 melanoma
[30] = system: SF-268 CNS
[31] = system: SR leukemia
[32] = system: EKVX NSCLC
[33] = system: COLO 205 colon
[34] = system: IGROV1 ovarian
[35] = system: OVCAR-8 ovarian
[36] = system: HOP-62 NSCLC
[37] = system: SNB-19 CNS
[38] = system: A549 NSCLC
[39] = system: HCC-2998 colon
[40] = system: SK-MEL-2 melanoma
[41] = system: MDA-MB-435
[42] = system: SW-620 colon
[43] = system: RPMI-8226 leukemia
[44] = system: T-47D breast
[45] = system: 786-0 renal
[46] = system: OVCAR-4 ovarian
[47] = system: HL-60(TB) leukemia
[48] = system: KM12 colon
[49] = system: MOLT-4 leukemia
[50] = system: NCI-H522 lung
[51] = system: NCI-H460 lung
[52] = system: OVCAR-3 ovarian
[53] = system: LOX IMVI melanoma
[54] = system: HT29 colon
[55] = system: SK-MEL-5 melanoma
[56] = system: HCT-15 colon
[57] = system: UACC-257 melanoma

Q: How did the GI50 [1] turn out when CN1CCN(Cc2ccc(NC(=O)c3cncc(C#Cc4cnc5ccc(NCCCO)nn45)c3)cc2C(F)(F)F)CC1 was run?
A: 210 nM

Q: And the TGI [1]?
A: 974 nM

Q: What about the GI50 [2] of the same molecule?
A: 314 nM

Q: What about the TGI [2] of the same molecule?
A: 1040 nM

Q: What about the GI50 [3] of the same molecule?
A: 245 nM

Q: And the TGI [3]?
A: 1000 nM

Q: What about the GI50 [4] of the same molecule?
A: 308 nM

Q: And the TGI [4]?
A: 1590 nM

Q: And the GI50 [5]?
A: 23.9 nM

Q: And the TGI [5]?
A: 125 nM

Q: And the GI50 [6]?
A: 384 nM

Q: And the TGI [6]?
A: 2150 nM

Q: And the GI50 [7]?
A: 177 nM

Q: What about the TGI [7] of the same molecule?
A: 1220 nM

Q: What about the GI50 [8] of the same molecule?
A: 90.7 nM

Q: And the TGI [8]?
A: 1200 nM

Q: And the GI50 [9]?
A: 62 nM

Q: And the TGI [9]?
A: 311 nM

Q: What about the GI50 [10] of the same molecule?
A: 483 nM

Q: And the TGI [10]?
A: 1490 nM

Q: And the GI50 [11]?
A: 343 nM

Q: And the TGI [11]?
A: 864 nM

Q: And the GI50 [12]?
A: 290 nM

Q: What about the TGI [12] of the same molecule?
A: 1020 nM

Q: What about the GI50 [13] of the same molecule?
A: 26.3 nM

Q: What about the TGI [13] of the same molecule?
A: 137 nM

Q: What about the GI50 [14] of the same molecule?
A: 41.5 nM

Q: What about the TGI [14] of the same molecule?
A: 303 nM

Q: And the GI50 [15]?
A: 183 nM

Q: And the TGI [15]?
A: 1990 nM

Q: What about the GI50 [16] of the same molecule?
A: 243 nM

Q: And the TGI [16]?
A: 2820 nM

Q: What about the GI50 [17] of the same molecule?
A: 457 nM

Q: What about the TGI [17] of the same molecule?
A: 1720 nM

Q: And the GI50 [18]?
A: 169 nM

Q: What about the TGI [18] of the same molecule?
A: 548 nM

Q: What about the GI50 [19] of the same molecule?
A: 85.5 nM

Q: What about the TGI [19] of the same molecule?
A: 370 nM

Q: What about the GI50 [20] of the same molecule?
A: 170 nM

Q: What about the TGI [20] of the same molecule?
A: 1060 nM

Q: What about the GI50 [21] of the same molecule?
A: 40.5 nM

Q: And the TGI [21]?
A: 221 nM

Q: And the GI50 [22]?
A: 7.22 µM

Q: What about the TGI [22] of the same molecule?
A: 18.2 µM

Q: What about the GI50 [23] of the same molecule?
A: 5 nM

Q: And the TGI [23]?
A: 1840 nM

Q: What about the GI50 [24] of the same molecule?
A: 24.8 nM

Q: And the TGI [24]?
A: 1810 nM

Q: What about the GI50 [25] of the same molecule?
A: 43.7 nM

Q: What about the TGI [25] of the same molecule?
A: 404 nM

Q: What about the GI50 [26] of the same molecule?
A: 97.5 nM

Q: What about the TGI [26] of the same molecule?
A: 438 nM

Q: And the GI50 [27]?
A: 1320 nM

Q: And the TGI [27]?
A: 3.69 µM

Q: And the GI50 [28]?
A: 21.1 nM

Q: What about the TGI [28] of the same molecule?
A: 124 nM

Q: What about the GI50 [29] of the same molecule?
A: 96.3 nM

Q: What about the TGI [29] of the same molecule?
A: 280 nM

Q: And the GI50 [30]?
A: 126 nM

Q: And the TGI [30]?
A: 850 nM

Q: And the GI50 [31]?
A: 32.2 nM

Q: And the TGI [31]?
A: 859 nM

Q: What about the GI50 [32] of the same molecule?
A: 148 nM

Q: What about the TGI [32] of the same molecule?
A: 924 nM

Q: What about the GI50 [33] of the same molecule?
A: 77.5 nM

Q: And the TGI [33]?
A: 188 nM

Q: What about the GI50 [34] of the same molecule?
A: 104 nM

Q: What about the TGI [34] of the same molecule?
A: 399 nM

Q: And the GI50 [35]?
A: 204 nM

Q: What about the TGI [35] of the same molecule?
A: 1030 nM

Q: What about the GI50 [36] of the same molecule?
A: 150 nM

Q: And the TGI [36]?
A: 999 nM

Q: What about the GI50 [37] of the same molecule?
A: 304 nM

Q: And the TGI [37]?
A: 2920 nM

Q: What about the GI50 [38] of the same molecule?
A: 202 nM

Q: And the TGI [38]?
A: 1110 nM

Q: And the GI50 [39]?
A: 222 nM

Q: What about the TGI [39] of the same molecule?
A: 1410 nM

Q: And the GI50 [40]?
A: 79 nM

Q: And the TGI [40]?
A: 178 nM

Q: And the GI50 [41]?
A: 71.1 nM

Q: And the TGI [41]?
A: 608 nM

Q: And the GI50 [42]?
A: 71.4 nM

Q: What about the TGI [42] of the same molecule?
A: 368 nM

Q: What about the GI50 [43] of the same molecule?
A: 206 nM

Q: What about the TGI [43] of the same molecule?
A: 898 nM

Q: And the GI50 [44]?
A: 414 nM

Q: And the TGI [44]?
A: 3.26 µM

Q: What about the GI50 [45] of the same molecule?
A: 299 nM

Q: What about the TGI [45] of the same molecule?
A: 969 nM

Q: And the GI50 [46]?
A: 166 nM

Q: What about the TGI [46] of the same molecule?
A: 1330 nM

Q: And the GI50 [47]?
A: 73.3 nM

Q: What about the TGI [47] of the same molecule?
A: 462 nM

Q: And the GI50 [48]?
A: 11.2 nM

Q: And the TGI [48]?
A: 876 nM

Q: And the GI50 [49]?
A: 43.5 nM

Q: And the TGI [49]?
A: 1620 nM

Q: What about the GI50 [50] of the same molecule?
A: 68.5 nM

Q: And the TGI [50]?
A: 247 nM

Q: What about the GI50 [51] of the same molecule?
A: 171 nM

Q: What about the TGI [51] of the same molecule?
A: 610 nM

Q: And the GI50 [52]?
A: 137 nM

Q: What about the TGI [52] of the same molecule?
A: 795 nM

Q: And the GI50 [53]?
A: 59.9 nM

Q: And the TGI [53]?
A: 270 nM

Q: What about the GI50 [54] of the same molecule?
A: 108 nM

Q: And the TGI [54]?
A: 439 nM

Q: And the GI50 [55]?
A: 617 nM

Q: And the TGI [55]?
A: 1270 nM

Q: What about the GI50 [56] of the same molecule?
A: 851 nM

Q: What about the TGI [56] of the same molecule?
A: 2990 nM

Q: What about the GI50 [57] of the same molecule?
A: 318 nM

Q: And the TGI [57]?
A: 1500 nM

Source: PubChem BioAssay (NCI)
